Experiments:
human V2 receptor = target: T1, human V2 receptor (Homo sapiens, UniProt P30518); test: Cellular in vitro assay for determining vasopressin receptor activity, V2 receptor cell line (CRE-luciferase); format: cell-based; settings: CHO cell line transfected with human V2 receptor; [Arg8]-vasopressin at EC50; compounds of the invention (Table 1A); read-out: IC50 hV2
T1 construct: expressed in transfected cells; host or cells: CHO K1 (ATCC) expressing firefly luciferase under a CRE-responsive promoter
T1 sequence (P30518 whole entry): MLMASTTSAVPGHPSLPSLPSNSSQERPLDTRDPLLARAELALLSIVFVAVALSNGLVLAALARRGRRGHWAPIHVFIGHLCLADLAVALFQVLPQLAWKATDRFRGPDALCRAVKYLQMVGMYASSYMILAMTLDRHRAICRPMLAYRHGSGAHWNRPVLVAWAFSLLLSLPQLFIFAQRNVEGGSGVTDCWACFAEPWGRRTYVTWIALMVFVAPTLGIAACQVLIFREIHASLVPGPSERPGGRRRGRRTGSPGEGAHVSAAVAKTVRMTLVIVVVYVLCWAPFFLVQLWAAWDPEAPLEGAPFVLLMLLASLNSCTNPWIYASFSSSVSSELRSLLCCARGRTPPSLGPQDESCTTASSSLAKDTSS
Protocol: (§1) The identification of agonists and antagonists of the V1a and V2 vasopressin receptors from humans, rats and dogs as well as the quantification of the activity of the compounds of the invention is carried out using recombinant cell lines. These cell lines originally derive from a hamster's ovary epithelial cell (Chinese Hamster Ovary, CHO K1, ATCC: American Type Culture Collection, Manassas, Va. 20108, USA). The test cell lines constitutively express the human, rat or dog V1a or V2 receptors. In case of the […] V1a receptors, cells are also stably transfected with a modified form of the calcium-sensitive photoproteins aequorin (human and rat V1a) or obelin (dog V1a), which, after reconstitution with the cofactor coelenterazine, emit light when there are increases in free calcium concentrations [Rizzuto R, Simpson A W, Brini M, Pozzan T, Nature 358, 325-327 (1992); Illarionov B A, Bondar V S, Illarionova V A, Vysotski E S, Gene 153 (2), 273-274 (1995)]. The resulting vasopressin receptor cells react to stimulation of the recombinantly expressed V1a receptors by intracellular release of calcium ions, which can be quantified by the resulting photoprotein luminescence. The Gs-coupled V2 receptors are stably transfected into cell lines expressing the gene for firefly luciferase under control of a CRE-responsible promoter. Activation of V2 receptors induces the activation of the CRE-responsive promoter via cAMP increase, thereby inducing the expression of firefly luciferase. The light emitted by photoproteins of V1a cell lines as well as the light emitted by firefly luciferase of V2 cell lines corresponds to the activation or inhibition of the respective vasopressin receptor. The bioluminescence of the cell lines is detected using a suitable luminometer [Milligan G, Marshall F, Rees S, Trends in Pharmacological Sciences 17, 235-237 (1996)].
On the day before the assay, the cells are plated out in culture medium (DMEM/F12, 2% FCS, 2 mM glutamine, 10 mM HEPES) in 384-well microtiter plates and kept in a cell incubator (96% humidity, 5% v/v CO2, 37° C.). […] Upon addition of the cell lysis reagent Triton and the substrate luciferin, luminescence of firefly luciferase is measured in a luminometer.
(§2) Table 1A below lists individual IC50 values for the compounds of the invention (including diastereomeric mixtures as well as separated, enantiopure diastereomers) that were obtained from cell lines transfected with the human V1a or V2 receptor: […]

human V1a receptor = target: T2, human V1a receptor (Homo sapiens, UniProt P37288); test: Cellular in vitro assay for determining vasopressin receptor activity, V1a receptor cell line (photoprotein luminescence); format: cell-based; settings: CHO cell line transfected with human V1a receptor; [Arg8]-vasopressin at EC50; compounds of the invention (Table 1A); read-out: IC50 hV1a
T2 construct: expressed in transfected cells; host or cells: CHO K1 (ATCC), also stably transfected with modified aequorin
T2 sequence (P37288 whole entry): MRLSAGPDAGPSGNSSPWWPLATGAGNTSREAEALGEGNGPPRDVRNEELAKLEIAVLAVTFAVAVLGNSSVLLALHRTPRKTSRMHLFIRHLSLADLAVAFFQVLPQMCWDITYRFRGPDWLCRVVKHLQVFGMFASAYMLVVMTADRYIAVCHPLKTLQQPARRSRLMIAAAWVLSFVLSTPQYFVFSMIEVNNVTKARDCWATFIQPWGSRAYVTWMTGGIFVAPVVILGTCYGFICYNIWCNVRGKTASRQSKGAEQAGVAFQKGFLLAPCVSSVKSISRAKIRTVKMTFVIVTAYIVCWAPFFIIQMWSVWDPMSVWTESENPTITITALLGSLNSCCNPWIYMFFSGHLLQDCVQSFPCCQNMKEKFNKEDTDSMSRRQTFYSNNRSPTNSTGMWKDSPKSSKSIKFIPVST
Protocol: as §1
On the day before the assay, the cells are plated out in culture medium (DMEM/F12, 2% FCS, 2 mM glutamine, 10 mM HEPES, 5 μg/ml coelenterazine) in 384-well microtiter plates and kept in a cell incubator (96% humidity, 5% v/v CO2, 37° C.). On the day of the assay, test compounds in various concentrations are placed for 10 minutes in the wells of the microtiter plate before the agonist [Arg^8]-vasopressin at EC50 concentration is added. The resulting light signal is measured immediately in the luminometer.
as §2

Structure (SMILES)	IC50 (human V2 receptor) [nM]	IC50 (human V1a receptor) [nM]
CC(O)c1nc(Cn2nc(-c3ccc(Cl)cc3)n(C[C@H](O)C(F)(F)F)c2=O)nn1-c1cccc(OC(F)F)c1 (mixture of isomers) [Example 55, 5-(4-Chlorophenyl)-2-({1-[3-(difluoromethoxy)phenyl]-5-[(1RS)-1-hydroxyethyl]-1H-1,2,4-triazol-3-yl}methyl)-4-[(2S)-3,3,3-trifluoro-2-hydroxypropyl]-2,4-dihydro-3H-1,2,4-triazol-3-one]	4.2	14.8
CC(O)c1nc(Cn2nc(-c3ccc(Cl)cc3)n(C[C@H](O)C(F)(F)F)c2=O)nn1-c1cccc(F)c1F (mixture of isomers) [Example 64, 5-(4-Chlorophenyl)-2-({1-(2,3-difluorophenyl)-5-[(1RS)-1-hydroxyethyl]-1H-1,2,4-triazol-3-yl}-methyl)-4-[(2S)-3,3,3-trifluoro-2-hydroxypropyl]-2,4-dihydro-3H-1,2,4-triazol-3-one]	5.1	8.1
CC(O)c1nc(Cn2nc(-c3ccc(Cl)cc3)n(C[C@H](O)C(F)(F)F)c2=O)nn1-c1cccc(F)c1 (mixture of isomers) [Example 75, 5-(4-Chlorophenyl)-2-({1-(3-fluorophenyl)-5-[(1RS)-1-hydroxyethyl]-1H-1,2,4-triazol-3-yl}-methyl)-4-[(2S)-3,3,3-trifluoro-2-hydroxypropyl]-2,4-dihydro-3H-1,2,4-triazol-3-one]	6.6	2.9
CC(O)c1nc(Cn2nc(-c3ccc(Cl)cc3)n(C[C@H](O)C(F)(F)F)c2=O)nn1-c1cccc(Cl)c1 (mixture of isomers) [Example 78, 5-(4-Chlorophenyl)-2-({1-(3-chlorophenyl)-5-[(1RS)-1-hydroxyethyl]-1H-1,2,4-triazol-3-yl}-methyl)-4-[(2S)-3,3,3-trifluoro-2-hydroxypropyl]-2,4-dihydro-3H-1,2,4-triazol-3-one]	3.1	10.4
CC(O)c1nc(Cn2nc(-c3ccc(Cl)cc3)n(C[C@H](O)C(F)(F)F)c2=O)nn1-c1ccccc1 (single isomer, unassigned) [Example 18]	8.6	14.1
CC(O)c1nc(Cn2nc(-c3ccc(Cl)cc3)n(C[C@H](O)C(F)(F)F)c2=O)nn1-c1cccc(C(F)F)c1 (single isomer, unassigned) [Example 21]	2.2	57.8
CC(O)c1nc(Cn2nc(-c3ccc(Cl)cc3)n(C[C@H](O)C(F)(F)F)c2=O)nn1-c1cccc(C(F)(F)F)c1 (single isomer, unassigned) [Example 24]	2	120
CC(O)c1nc(Cn2nc(-c3ccc(Cl)cc3)n(C[C@H](O)C(F)(F)F)c2=O)nn1-c1cc(F)cc(F)c1 (single isomer, unassigned) [Example 26]	3	3.1
CC(O)c1nc(Cn2nc(-c3ccc(Cl)cc3)n(C[C@H](O)C(F)(F)F)c2=O)nn1-c1cc(F)cc(F)c1 (single isomer, unassigned) [Example 27]	7.7	43.7
CCc1ccccc1-n1nc(Cn2nc(-c3ccc(Cl)cc3)n(C[C@H](O)C(F)(F)F)c2=O)nc1C(C)O (single isomer, unassigned) [Example 33]	2.3	1.6
CC(O)c1nc(Cn2nc(-c3ccc(Cl)cc3)n(C[C@H](O)C(F)(F)F)c2=O)nn1-c1ccc(F)cc1Cl (single isomer, unassigned) [Example 36]	2.8	0.8
COc1ccc(F)cc1-n1nc(Cn2nc(-c3ccc(Cl)cc3)n(C[C@H](O)C(F)(F)F)c2=O)nc1C(C)O (single isomer, unassigned) [Example 39]	3.5	1.5
CC(O)c1nc(Cn2nc(-c3ccc(Cl)cc3)n(C[C@H](O)C(F)(F)F)c2=O)nn1-c1ccccc1F (single isomer, unassigned) [Example 41]	7.9	1.8
CC(O)c1nc(Cn2nc(-c3ccc(Cl)cc3)n(C[C@H](O)C(F)(F)F)c2=O)nn1-c1ccccc1F (single isomer, unassigned) [Example 42]	12.7	5.1
CC(O)c1nc(Cn2nc(-c3ccc(Cl)cc3)n(C[C@H](O)C(F)(F)F)c2=O)nn1-c1ccc(F)c(Cl)c1 (single isomer, unassigned) [Example 45]	3.3	92.1

These reach a lower IC50 (human V2 receptor). Values come first.

IC50 (human V2 receptor) [nM]	IC50 (human V1a receptor) [nM]	Structure (SMILES)
1.6	0.5	CC(O)c1nc(Cn2nc(-c3ccc(Cl)cc3)n(C[C@H](O)C(F)(F)F)c2=O)nn1-c1ccc(F)cc1Cl (single isomer, unassigned) [Example 35]
1.5	0.2	CC(O)c1nc(Cn2nc(-c3ccc(Cl)cc3)n(C[C@H](O)C(F)(F)F)c2=O)nn1-c1cc(F)ccc1Cl (mixture of isomers) [Example 58, 2-({1-(2-Chloro-5-fluorophenyl)-5-[(1RS)-1-hydroxyethyl]-1H-1,2,4-triazol-3-yl}methyl)-5-(4-chlorophenyl)-4-[(2S)-3,3,3-trifluoro-2-hydroxypropyl]-2,4-dihydro-3H-1,2,4-triazol-3-one]
1.2	6.1	CC(O)c1nc(Cn2nc(-c3ccc(Cl)cc3)n(C[C@H](O)C(F)(F)F)c2=O)nn1-c1ccc(F)c(Cl)c1 (single isomer, unassigned) [Example 44]
1.1	1.3	COc1ccccc1-n1nc(Cn2nc(-c3ccc(Cl)cc3)n(C[C@H](O)C(F)(F)F)c2=O)nc1C(C)O (single isomer, unassigned) [Example 12]
1	0.9	CCc1ccccc1-n1nc(Cn2nc(-c3ccc(Cl)cc3)n(C[C@H](O)C(F)(F)F)c2=O)nc1C(C)O (single isomer, unassigned) [Example 32]
0.9	12.2	CC(O)c1nc(Cn2nc(-c3ccc(Cl)cc3)n(C[C@H](O)C(F)(F)F)c2=O)nn1-c1cccc(C(F)(F)F)c1 (single isomer, unassigned) [Example 23]
0.9	0.6	COc1ccc(F)cc1-n1nc(Cn2nc(-c3ccc(Cl)cc3)n(C[C@H](O)C(F)(F)F)c2=O)nc1C(C)O (single isomer, unassigned) [Example 38]
0.8	3.8	CC(O)c1nc(Cn2nc(-c3ccc(Cl)cc3)n(C[C@H](O)C(F)(F)F)c2=O)nn1-c1cccc(C(F)F)c1 (single isomer, unassigned) [Example 20]
0.4	71.6	Cc1cccc(-n2nc(Cn3nc(-c4ccc(Cl)cc4)n(C[C@H](O)C(F)(F)F)c3=O)nc2C(C)O)c1 (single isomer, unassigned) [Example 30]
0.3	0.4	COc1ccccc1-n1nc(Cn2nc(-c3ccc(Cl)cc3)n(C[C@H](O)C(F)(F)F)c2=O)nc1C(C)O (single isomer, unassigned) [Example 11]
0.2	3.2	CC(O)c1nc(Cn2nc(-c3ccc(Cl)cc3)n(C[C@H](O)C(F)(F)F)c2=O)nn1-c1cccc(Cl)c1Cl (mixture of isomers) [Example 61, 5-(4-Chlorophenyl)-2-({1-(2,3-dichlorophenyl)-5-[(1RS)-1-hydroxyethyl]-1H-1,2,4-triazol-3-yl}-methyl)-4-[(2S)-3,3,3-trifluoro-2-hydroxypropyl]-2,4-dihydro-3H-1,2,4-triazol-3-one]

— patent US9771352B2, “Hydroxyalkyl-substituted phenyltriazole derivatives and uses thereof” (BAYER PHARMA AKTIENGESELLSCHAFT, priority 2014, dated 2017)
